Tested on: A549 cell lines (lung cancer cell lines)
Experiment: Oxygen Consumption Rate (OCR) of cells, corrected for cell viability (Cyquant)
Format: cell-based
Settings: Homo sapiens, A549, 24 h, read-out: OCR IC50
Description: The compounds synthesized by the methods disclosed in the Examples of the present invention have been measured on oxygen consumption rate and extracellular oxidation by the methods disclosed in the Test Examples below.
3×10^3 cells from A549 cell lines (purchased from ATCC-American Type Culture Collection), which are lung cancer cell lines, were placed on XF96 cell culture plates using RPMI1640 medium, and cultured at 37° C. in a 5% CO2 condition for 16 hours or more for attachment.
After 16 hours, the cells were treated with the drug at six different concentrations between 0 μM and 20 μM. After 24 hours, the existing medium was removed, and XF assay medium (15 mM D-Glucose, 15 mM sodium pyruvate, 4 mM L-Glutamine, pH 7.4) was added. The cells were retreated with the drug, and additionally cultured in Prep station at 37° C. in a non-CO2 condition for 1 hour. During the one-hour culture in the Prep station, a sensor cartridge was placed and calibrated for 20 minutes, and a plate with cells was placed to analyze the OCR. After the analysis was completed, XF96 plate was measured for cell viability using Cyquant assay, which measures the amount of intracellular DNA, in the following method. XF assay medium and the drug were removed, and the cells were placed in a cryogenic refrigerator (−80° C.) for at least 4 hours to be frozen. After the plate was made to be at room temperature, a solution where a lysis buffer and fluorescent GR dye were mixed was placed by 200 μL per well. After 20-minute reaction at room temperature, […] was measured between […] to calculate cell viability. A measured value of a well untreated with the drug was converted to 100% by reflecting cell viability to the OCR value. Concentration of a drug which inhibits the OCR value reflecting cell viability by 50% was calculated.

| Structure (SMILES) | IC50 [µM] |
| --- | --- |
| c1c[se]c(C[n+]2ccc(N3CCCC3)cc2)c1 [Example 72, 4-(Pyrrolidin-1-yl)-1-(selenophen-2-ylmethyl)pyridinium chloride] | 1 |
| Nc1cc[n+](Cc2ccc[se]2)nc1 [Example 75, 4-Amino-1-(selenophen-2-ylmethyl)pyridazin-1-ium chloride] | 18.8 |
| Nc1cc[n+](Cc2ccc[se]2)cc1 [Example 76, 4-Amino-1-(selenophen-2-ylmethyl)pyridinium chloride] | 1.5 |

Same assay, conditions: Homo sapiens; A549 cells, 24 h drug treatment, OCR value reflecting cell viability; read-out: OCR IC50

| Structure (SMILES) | IC50 [µM] |
| --- | --- |
| CN(C)c1cc[n+](Cc2ccc(Cl)c(Cl)c2)cc1 [Example 38, 1-(3,4-Dichlorobenzyl)-4-(dimethylamino)pyridinium chloride] | 1.1 |
| Nc1cc[n+](CC2CC2)c(F)c1 [Example 39, 4-Amino-1-(cyclopropylmethyl)-2-fluoropyridinium chloride] | 2.7 |
| Nc1cc[n+](CCC2CCCCC2)c(N)c1 [Example 40, 2,4-Diamino-1-(2-cyclohexylethyl)pyridinium bromide] | 0.9 |
| CNc1cc[n+](CC2CC2)cc1 [Example 41, 1-(Cyclopropylmethyl)-4-(methylamino)pyridinium chloride] | 2.7 |
| CN(C)c1cc[n+](CC2CC2)cc1 [Example 42, 1-(Cyclopropylmethyl)-4-(dimethylamino)pyridinium chloride] | 1.5 |
| Cc1c[n+](Cc2ccccc2)ccc1N [Example 43, 4-Amino-3-methyl-1-benzylpyridinium chloride] | 0.9 |
| Cc1c[n+](CCc2ccccc2)ccc1N [Example 44, 4-Amino-3-methyl-1-phenethylpyridinium chloride] | 1.1 |
| COc1cc(N)cc[n+]1Cc1ccccc1 [Example 45, 4-Amino-1-benzyl-2-methoxypyridinium chloride] | 5 |
| Nc1cc[n+](CC2CCCCC2)cc1 [Example 46, 4-Amino-1-(cyclohexylmethyl)pyridinium bromide] | 0.8 |
| Nc1cc[n+](CC2CCC2)cc1 [Example 47, 4-Amino-1-(cyclobutylmethyl)pyridinium bromide] | 5 |
| Nc1cc[n+](CC2CCC2)c(F)c1 [Example 48, 4-Amino-1-(cyclobutylmethyl)-2-fluoropyridinium bromide] | 0.8 |
| Nc1cc[n+](Cc2ccc(F)cc2)cc1 [Example 49, 4-Amino-1-(4-fluorobenzyl)pyridinium bromide] | 2.4 |
| c1ccc(C[n+]2ccc(N3CCOCC3)cc2)cc1 [Example 50, 1-Benzyl-4-morpholinopyridinium chloride] | 1 |
| c1ccc(CC[n+]2ccc(N3CCOCC3)cc2)cc1 [Example 51, 4-Morpholino-1-phenethylpyridinium chloride] | 3.1 |

Tested on: SK-MEL-28 cells
Experiment: Inhibitory effect of cancer cell proliferation, MTT
Format: cell-based
Settings: Homo sapiens, SK-MEL-28, 72 h, read-out: SK-MEL-28 0.75 mM glucose Cell viability (IC50 μM)
Description: The compounds prepared in the above Examples were evaluated for the inhibitory effect of cancer cell proliferation according to the method described in the following Test Example.
SK-MEL-28 cells derived from human melanoma were used, and the concentration (cell growth inhibitory concentration, IC50) at which cell growth was inhibited to 50% was measured using MTT reagent (3-(4,5-dimethylthiazole-2-yl)-2,5-[…] bromide) to confirm the inhibitory effect of cancer cell proliferation of the drugs synthesized in Examples 1 to 84.
First, SK-MEL-28 cells were cultured in 96-well plates at a cell number of about 1,250 in RPMI-1640 medium containing 11.1 mM glucose and 10% calf blood serum or 0.75 mM glucose and 10% calf blood serum, and were cultured for 16 hours. […] After treatment of the compound, MTT was added to the culture medium to confirm living cells and further cultured for 2 hours. The resulting formazane crystal was dissolved using dimethyl sulfoxide, and the absorbance of the solution was measured at 555 nm. After culturing for 72 hours, the number of viable cells in the well plate treated with the compounds synthesized in the Examples relative to the number of cells cultured in the well plate without treatment of the compounds was expressed as cell viability (%) according to each treatment concentration. By using this, a cell viability curve graph was prepared, and the inhibitory effect of cancer cell proliferation was confirmed by calculating the concentration of the compound whose growth was inhibited to 50% (IC50).

| Structure (SMILES) | IC50 [µM] |
| --- | --- |
| c1c[se]c(C[n+]2ccc(N3CCCC3)cc2)c1 [Example 72, 4-(Pyrrolidin-1-yl)-1-(selenophen-2-ylmethyl)pyridinium chloride] | 2.6 |
| Nc1cc[n+](Cc2ccc[se]2)nc1 [Example 75, 4-Amino-1-(selenophen-2-ylmethyl)pyridazin-1-ium chloride] | 57.7 |
| Nc1cc[n+](Cc2ccc[se]2)cc1 [Example 76, 4-Amino-1-(selenophen-2-ylmethyl)pyridinium chloride] | 14.1 |

Same assay, conditions: Homo sapiens, SK-MEL-28, 72 h, read-out: SK-MEL-28 11.1 mM glucose Cell viability (IC50 μM)

| Structure (SMILES) | IC50 [µM] |
| --- | --- |
| c1c[se]c(C[n+]2ccc(N3CCCC3)cc2)c1 [Example 72, 4-(Pyrrolidin-1-yl)-1-(selenophen-2-ylmethyl)pyridinium chloride] | 37.2 |
| Nc1cc[n+](Cc2ccc[se]2)nc1 [Example 75, 4-Amino-1-(selenophen-2-ylmethyl)pyridazin-1-ium chloride] | 239 |
| Nc1cc[n+](Cc2ccc[se]2)cc1 [Example 76, 4-Amino-1-(selenophen-2-ylmethyl)pyridinium chloride] | 114 |

Same assay, conditions: Homo sapiens, SK-MEL-28; 0.75 mM glucose, 72 hours, MTT; read-out: SK-MEL-28 0.75 mM glucose Cell viability (IC50 μM)

| Structure (SMILES) | IC50 [µM] |
| --- | --- |
| CN(C)c1cc[n+](Cc2ccc(Cl)c(Cl)c2)cc1 [Example 38, 1-(3,4-Dichlorobenzyl)-4-(dimethylamino)pyridinium chloride] | 1.5 |
| Nc1cc[n+](CC2CC2)c(F)c1 [Example 39, 4-Amino-1-(cyclopropylmethyl)-2-fluoropyridinium chloride] | 45.3 |
| Nc1cc[n+](CCC2CCCCC2)c(N)c1 [Example 40, 2,4-Diamino-1-(2-cyclohexylethyl)pyridinium bromide] | 7.5 |
| CNc1cc[n+](CC2CC2)cc1 [Example 41, 1-(Cyclopropylmethyl)-4-(methylamino)pyridinium chloride] | 35.1 |
| CN(C)c1cc[n+](CC2CC2)cc1 [Example 42, 1-(Cyclopropylmethyl)-4-(dimethylamino)pyridinium chloride] | 35 |
| Cc1c[n+](Cc2ccccc2)ccc1N [Example 43, 4-Amino-3-methyl-1-benzylpyridinium chloride] | 14.4 |
| Cc1c[n+](CCc2ccccc2)ccc1N [Example 44, 4-Amino-3-methyl-1-phenethylpyridinium chloride] | 15.2 |
| COc1cc(N)cc[n+]1Cc1ccccc1 [Example 45, 4-Amino-1-benzyl-2-methoxypyridinium chloride] | 16.6 |
| Nc1cc[n+](CC2CCCCC2)cc1 [Example 46, 4-Amino-1-(cyclohexylmethyl)pyridinium bromide] | 7.9 |
| Nc1cc[n+](CC2CCC2)cc1 [Example 47, 4-Amino-1-(cyclobutylmethyl)pyridinium bromide] | 20.3 |
| Nc1cc[n+](CC2CCC2)c(F)c1 [Example 48, 4-Amino-1-(cyclobutylmethyl)-2-fluoropyridinium bromide] | 19.9 |
| Nc1cc[n+](Cc2ccc(F)cc2)cc1 [Example 49, 4-Amino-1-(4-fluorobenzyl)pyridinium bromide] | 10.3 |
| c1ccc(C[n+]2ccc(N3CCOCC3)cc2)cc1 [Example 50, 1-Benzyl-4-morpholinopyridinium chloride] | 13.9 |
| c1ccc(CC[n+]2ccc(N3CCOCC3)cc2)cc1 [Example 51, 4-Morpholino-1-phenethylpyridinium chloride] | 29.1 |

Same assay, conditions: Homo sapiens, SK-MEL-28; 11.1 mM glucose, 72 hours, MTT; read-out: SK-MEL-28 11.1 mM glucose Cell viability (IC50 μM)

| Structure (SMILES) | IC50 [µM] |
| --- | --- |
| CN(C)c1cc[n+](Cc2ccc(Cl)c(Cl)c2)cc1 [Example 38, 1-(3,4-Dichlorobenzyl)-4-(dimethylamino)pyridinium chloride] | 11.7 |
| Nc1cc[n+](CC2CC2)c(F)c1 [Example 39, 4-Amino-1-(cyclopropylmethyl)-2-fluoropyridinium chloride] | 76.5 |
| Nc1cc[n+](CCC2CCCCC2)c(N)c1 [Example 40, 2,4-Diamino-1-(2-cyclohexylethyl)pyridinium bromide] | 30.6 |
| CNc1cc[n+](CC2CC2)cc1 [Example 41, 1-(Cyclopropylmethyl)-4-(methylamino)pyridinium chloride] | 234 |
| CN(C)c1cc[n+](CC2CC2)cc1 [Example 42, 1-(Cyclopropylmethyl)-4-(dimethylamino)pyridinium chloride] | 199 |
| Cc1c[n+](Cc2ccccc2)ccc1N [Example 43, 4-Amino-3-methyl-1-benzylpyridinium chloride] | 45.5 |
| Cc1c[n+](CCc2ccccc2)ccc1N [Example 44, 4-Amino-3-methyl-1-phenethylpyridinium chloride] | 105 |
| COc1cc(N)cc[n+]1Cc1ccccc1 [Example 45, 4-Amino-1-benzyl-2-methoxypyridinium chloride] | 81.4 |
| Nc1cc[n+](CC2CCCCC2)cc1 [Example 46, 4-Amino-1-(cyclohexylmethyl)pyridinium bromide] | 49.6 |
| Nc1cc[n+](CC2CCC2)cc1 [Example 47, 4-Amino-1-(cyclobutylmethyl)pyridinium bromide] | 167 |
| Nc1cc[n+](CC2CCC2)c(F)c1 [Example 48, 4-Amino-1-(cyclobutylmethyl)-2-fluoropyridinium bromide] | 46.3 |
| Nc1cc[n+](Cc2ccc(F)cc2)cc1 [Example 49, 4-Amino-1-(4-fluorobenzyl)pyridinium bromide] | 54.5 |
| c1ccc(C[n+]2ccc(N3CCOCC3)cc2)cc1 [Example 50, 1-Benzyl-4-morpholinopyridinium chloride] | 208 |
| c1ccc(CC[n+]2ccc(N3CCOCC3)cc2)cc1 [Example 51, 4-Morpholino-1-phenethylpyridinium chloride] | 201 |
